Tests used:
Experiment in all cases: NCI 60 cell line screen
Type in all cases: cell-based, human
KM12 = settings: for activity at 10 µM: Homo sapiens, KM12, Colon Cancer, read-out: Percent growth; for percent inhibition: KM12, NCI-60 heat map analysis
In short: (§1)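 SRB read-out (515 nm) after 48 h drug exposure, 37 °C, RPMI 1640/5% FBS; five-point dilution series, top conc. 10 µM. Percent growth from Tz, control and treated absorbances; GI50 and TGI derived.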

HOP-92 = settings: for percent inhibition: HOP-92, NCI-60 heat map analysis; for activity at 10 µM: Homo sapiens, HOP-92, Non-Small Cell Lung Cancer, read-out: Percent growth
In short: as §1

U251 = settings: for activity at 10 µM: Homo sapiens, U-251, U251, CNS-Cancer, read-out: Percent growth
In short: (§2)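 Human tumour lines were grown in RPMI 1640 with 5% FBS and 2 mM L-glutamine, then exposed 48 h at 37 °C to five concentrations (max 10 µM) after 24 h pre-incubation. Growth was measured by sulforhodamine B protein staining at 515 nm relative to time-zero and untreated controls.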

CAKI-1 = settings: for activity at 10 µM: Homo sapiens, CAKI-1, Renal Cancer, read-out: Percent growth
In short: as §2

EKVX = settings: for activity at 10 µM: Homo sapiens, Non-Small Cell Lung Cancer, read-out: Percent growth
In short: as §2

SR = settings: for activity at 10 µM: Homo sapiens, Leukemia, read-out: Percent growth; for percent inhibition: NCI-60 heat map analysis
In short: as §1

RPMI-8226 = settings: for activity at 10 µM: Homo sapiens, RPMI-8226, Leukemia, read-out: Percent growth; for percent inhibition: RPMI-8226, NCI-60 heat map analysis
In short: as §1

HT29 = settings: for activity at 10 µM: Homo sapiens, HT-29, HT29, Colon Cancer, read-out: Percent growth
In short: as §2

OVCAR-4 = settings: for activity at 10 µM: Homo sapiens, OVCAR-4, Ovarian Cancer, read-out: Percent growth; for percent inhibition: OVCAR-4, NCI-60 heat map analysis
In short: as §1

K-562 = settings: for activity at 10 µM: Homo sapiens, K562, K-562, Leukemia, read-out: Percent growth
In short: as §2

NCI-H226 = settings: for activity at 10 µM: Homo sapiens, NCI-H226, Non-Small Cell Lung Cancer, read-out: Percent growth; for percent inhibition: NCI-H226, NCI-60 heat map analysis
In short: as §1

NCI/ADR-RES = settings: for activity at 10 µM: Homo sapiens, Ovarian Cancer, read-out: Percent growth
In short: as §2

SNB-75 = settings: for activity at 10 µM: Homo sapiens, SNB-75, CNS-Cancer, read-out: Percent growth
In short: as §2

T-47D = settings: for activity at 10 µM: Homo sapiens, T47D, Breast Cancer, read-out: Percent growth; for percent inhibition: NCI-60 heat map analysis
In short: as §1

NCI-H460 = settings: for activity at 10 µM: Homo sapiens, NCI-H460, Non-Small Cell Lung Cancer, read-out: Percent growth
In short: as §2

MDA-MB-468 = settings: for activity at 10 µM: Homo sapiens, MDA-MB-468, Breast Cancer, read-out: Percent growth; for percent inhibition: MDA-MB-468, NCI-60 heat map analysis
In short: as §1

SF-295 = settings: for activity at 10 µM: Homo sapiens, SF-295, CNS-Cancer, read-out: Percent growth
In short: as §2

SK-MEL-5 = settings: for activity at 10 µM: Homo sapiens, SK-MEL-5, Melanoma, read-out: Percent growth; for percent inhibition: SK-MEL-5, NCI-60 heat map analysis
In short: as §1

NCI-H522 = settings: for activity at 10 µM: Homo sapiens, NCI-H522, Non-Small Cell Lung Cancer, read-out: Percent growth
In short: as §2

RXF 393 = settings: for activity at 10 µM: Homo sapiens, RXF 393, Renal Cancer, read-out: Percent growth
In short: as §2

Row | SMILES | activity at 10 µM (KM12) | activity at 10 µM (HOP-92) | activity at 10 µM (U251) | activity at 10 µM (CAKI-1) | activity at 10 µM (EKVX) | activity at 10 µM (SR) | activity at 10 µM (RPMI-8226) | activity at 10 µM (HT29) | activity at 10 µM (OVCAR-4) | activity at 10 µM (K-562) | activity at 10 µM (NCI-H226) | activity at 10 µM (NCI/ADR-RES) | activity at 10 µM (SNB-75) | activity at 10 µM (T-47D) | activity at 10 µM (NCI-H460) | activity at 10 µM (MDA-MB-468) | activity at 10 µM (SF-295) | activity at 10 µM (SK-MEL-5) | activity at 10 µM (NCI-H522) | activity at 10 µM (RXF 393) | also measured
1 | O=S(=O)(NCCCNc1nccc(-n2cnc3ccccc32)n1)c1ccc(C(F)(F)F)cc1 [12l, N-(3-((4-(1H-benzo [d]imidazol-1-yl)pyrimidin-2-yl)amino)propyl)-4-(trifluoromethyl) benzenesulfonamide] | 51.7% | 56% | 73.2% | 51.4% | 58.1% | 58% | 55.6% | 54.6% | 53% | 33.9% | 57.6% | 55.8% | 65.2% | 16.8% | 79.3% | 52.7% | 69.8% | 29.9% | 66.9% | 43.8% | percent inhibition (HOP-92): around 40%; percent inhibition (CAKI-1; CAKI-1, NCI-60 heat map analysis): 49%; percent inhibition (HT29; HT29, NCI-60 heat map analysis): more than 40%; percent inhibition (NCI-H226): around 40%; percent inhibition (T-47D): 84%; percent inhibition (SK-MEL-5): 70%; percent inhibition (RXF 393; RXF 393, NCI-60 heat map analysis): 57%
2 | Cc1ccc(S(=O)(=O)NCCNc2nccc(-n3cnc4ccccc43)n2)cc1 [12g, N-(2-((4-(1H-benzo [d]imidazol-1-yl)pyrimidin-2-yl)amino)ethyl)-4-methyl benzenesulfonamide] | 77.4% | 57.9% | 85.2% | 57.5% | 56.1% | 53.6% | 52.5% | 90.2% | 42.1% | 56.1% | 58.7% | 75.7% | 69% | 27.6% | 79% | 51% | 75.5% | 20.8% | 64.6% | 55.4% | percent inhibition (HOP-92): around 40%; percent inhibition (SR): around 45%; percent inhibition (RPMI-8226): around 45%; percent inhibition (NCI-H226): around 40%; percent inhibition (T-47D): 73%; percent inhibition (MDA-MB-468): 49%; percent inhibition (SK-MEL-5): 80%
3 | O=S(=O)(NCCNc1nccc(-n2cnc3ccccc32)n1)c1ccc(C(F)(F)F)cc1 [12e, N-(2-((4-(1H-benzo [d]imidazol-1-yl)pyrimidin-2-yl)amino)ethyl)-4-(trifluoromethyl)benzenesulfonamide] | 58.7% | 54.5% | 42.4% | 43.1% | 34.7% | 35.5% | 44.9% | 68% | 28.4% | 40.8% | 62.7% | 55.9% | 46.8% | 22.3% | 57.8% | 26.4% | 44.7% | 8.48% | 38.2% | 38.2% | percent inhibition (KM12): around 40%; percent inhibition (HOP-92): around 40%; percent inhibition (U251; U251, NCI-60 heat map analysis): more than 50%; percent inhibition (SR): 65%; percent inhibition (RPMI-8226): 55%; percent inhibition (OVCAR-4): 71%; percent inhibition (NCI/ADR-RES; NCI-60 heat map analysis): 45%; percent inhibition (SNB-75; SNB-75, NCI-60 heat map analysis): more than 50%; percent inhibition (T-47D): 77%; percent inhibition (NCI-H460; NCI-H460, NCI-60 heat map analysis): around 40%; percent inhibition (MDA-MB-468): 74%; percent inhibition (SF-295; SF-295, NCI-60 heat map analysis): more than 50%; percent inhibition (SK-MEL-5): 91%
4 | O=S(=O)(NCCCNc1nccc(-n2cnc3ccccc32)n1)c1cccc2ccccc12 [12n, N-(3-((4-(1H-benzo [d]imidazol-1-yl)pyrimidin-2-yl)amino)propyl)naphthalene-1-sulfonamide] | 79.8% | 80.2% | 90.8% | 60.5% | 75.1% | 75.4% | 69.7% | 96.3% | 66.7% | 67.6% | 77.8% | 81.1% | 87.2% | 44.7% | 89.8% | 76.2% | 81.2% | 58.8% | 70% | 105% | percent inhibition (K-562; K-562, NCI-60 heat map analysis): around 30%; percent inhibition (T-47D): 56%; percent inhibition (SK-MEL-5): 40%
5 | O=S(=O)(NCCNc1nccc(-n2cnc3ccccc32)n1)c1ccc(Cl)cc1 [12c, N-(2-((4-(1H-benzo [d]imidazol-1-yl)pyrimidin-2-yl)amino)ethyl)-4-chlorobenzenesulfonamide] | 97.1% | 90.2% | 102% | 87.4% | 92.2% | 96.3% | 99.4% | 103% | 95.2% | 97.6% | 91.1% | 97.8% | 79.4% | 97.1% | 103% | 101% | 96.7% | 99.4% | 92.1% | 117% | –
6 | O=S(=O)(NCCCNc1nccc(-n2cnc3ccccc32)n1)c1ccc(F)cc1 [12i, N-(3-((4-(1H-benzo [d]imidazol-1-yl)pyrimidin-2-yl)amino)propyl)-4-fluorobenzenesulfonamide] | 48.9% | 87.9% | 93.8% | 71% | 61.2% | 36.8% | 57.8% | 92.8% | 44.2% | 37.2% | 64.1% | 64.3% | 82.5% | 25.5% | 79.7% | 50.2% | 70.6% | 2.63% | 68.5% | 163% | percent inhibition (KM12): around 50%; percent inhibition (EKVX; NCI-60 heat map analysis): around 30%; percent inhibition (OVCAR-4): 56%; percent inhibition (NCI-H226): around 30%; percent inhibition (T-47D): 75%; percent inhibition (SK-MEL-5): 97%; percent inhibition (NCI-H522; NCI-H522, NCI-60 heat map analysis): around 30%
7 | O=S(=O)(NCCCNc1nccc(-n2cnc3ccccc32)n1)c1ccccc1 [12h, N-(3-((4-(1H-benzo [d]imidazol-1-yl)pyrimidin-2-yl)amino)propyl)benzenesulfonamide] | 71% | 84.8% | 98.2% | 87.4% | 88.9% | 80% | 74.3% | 101% | 74.5% | 79.5% | 81% | 86.2% | 89.7% | 45.8% | 96.9% | 68.8% | 92.5% | 60.2% | 82.7% | 110% | percent inhibition (T-47D): 55%; percent inhibition (SK-MEL-5): 40%
